US20240336567A1, “PESTICIDAL AND HERBICIDAL COMPOUNDS AND METHODS OF USE THEREOF” (AG Plenus Ltd, priority 2021, published 2024)

Tested on: POAAN
Test: In-planta LTP pre-emergence, visual phenotype
Type: in vivo, Poa annua
Details: Poa annua, 432 h, monocot, read-out: IG Inhibited growth (% effect)
Description: A basic panel of 8 weed species (Table 3) were sowed in 4×4×7 cm plastic pots containing inert sand (Sweet sand), intensively washed using osmosis water. Each specie was sowed in a separate pot. In each pot 10-15 seeds were sowed according to the specie viability. Sowing was performed one day before application. The plants were grown for 21 days in a controlled greenhouse (26±2° C. day 20±2° C. night). Hood irrigation (tap water+Shefer 5:3:8 8 mM) was given at a 50% water content by weight. Compounds were soluble in water (DDW), and commercial herbicide control was soluble in formulation B (Table 4). Application was conducted with an industrial sprayer (TeeJet 6502E nozzle) at a rate of 2 kg/ha and spray volume of […]. Pre-emergence advanced dose response experiment application was conducted at six rates between 1-0.0312 kg/ha and spray volume of […]. Percentage of emergence was evaluated at 15 DAA. Visual phenotyping was recorded using a scale of 0-6 (0: no visible effect, 6: maximum effect) at 18 DAA. All experiments included an untreated control, a solvent control and a positive control (commercial herbicide A.I.). Statistical analysis for visual phenotyping determined by a median value of ≥3.5 and Fisher test (pval≤0.05). Statistical analysis for plant emergence determined by % emergence ≥50 and T test (pval≤0.05), as well as Wilcox test (pval≤0.05).

Row | SMILES | pest or weed control at 2000 g/ha [%]
1 | CC(N)COc1cccc(C(=O)O)c1 (stereo not shown) [Compound 106] | 100
2 | C#CCOC(=O)c1cccc(OCC(C)N)c1 (stereo not shown) [Compound 111] | 100
3 | CCCCOC(=O)c1cccc(OCC(C)N)c1 (stereo not shown) [Compound 112] | 100

Same assay, conditions: monocot

Row | SMILES | DE Disturbed emergence (% effect)
4 | CC(N)COc1cccc(C(=O)O)c1 (stereo not shown) [Compound 106] | DE (100) %
5 | C#CCOC(=O)c1cccc(OCC(C)N)c1 (stereo not shown) [Compound 111] | DE (100), %
6 | CCCCOC(=O)c1cccc(OCC(C)N)c1 (stereo not shown) [Compound 112] | DE (100), %
7 | C[C@@H](N)COc1cccc(C(=O)O)c1 [Compound 154] | DE (100) %

Tested on: AMAPA
Test: In-planta LTP post-emergence, visual phenotype
Type: in vivo, Amaranthus palmeri
Details: dicot
Description: A basic panel of eight weed species (Table 3) sowed in 4×4×7 cm plastic pots containing a garden mix (klasmann). Each specie was sowed in a separate pot. In each pot, 10-15 seeds were sowed according to the specie viability. Timing of application determined at a 1-2 true leaf stage. The plants grew for 30 days in a controlled greenhouse (26±2° C. day, 20±2° C. night). Hood irrigation (tap water+Shefer 5:3:8 8 mM) was given at a 50% water content by weight. Two days before application, the tested plants thinned down to three plants per pot. Compounds were soluble in water (DDW), and commercial herbicide control was soluble in formulation B (Table 4). Before application, 1% (v/v) crop oil and 0.02% (v/v) surfactant (Tergitol™ 15-5-7) were added to the solution. Application was conducted with an industrial sprayer (TeeJet 6502E nozzle) at a rate of 2 kg/ha and spray volume of […]. Plants were evaluated at 3 time points (4, 8, 12 days after application (DAA)). At each time point, visual phenotyping was recorded using a scale of 0-6 (0: no visible effect, 6: maximum effect). At 12 DAA, plants foliage was harvested, dried and weighed for dry weight analysis.
Post-emergence advanced dose response experiment included 4 species: SETVI, ECHCO, AMAPA, ABUTH (Tables 3, 5). Application was conducted at six rates between 0.6-0.0187 kg/ha and spray volume of […]. Plants were evaluated at 4 time points (6, 12, 18 and 26 DAA). At each time point, visual phenotyping was recorded using a scale of 0-6 (0: no visible effect, 6: maximum effect). At 26 DAA, plants foliage was harvested, dried and weighed for dry weight analysis.
Post-emergence advanced wide panel experiment included 24 weed species (Table 5). Application was conducted at 2 rates of 2 kg/ha and 0.25 kg/ha and spray volume of […]. Visual phenotyping was recorded at 4, 11, 17 and 20 DAA using a scale of 0-6 (0: no visible effect, 6: maximum effect). At 21 DAA, plants foliage was harvested, dried, and weighed for dry weight analysis. All experiments included an untreated control, a solvent control, and a positive control (commercial herbicide A.I.). Statistical analysis for visual phenotyping determined by a median value of ≥3.5 and Fisher test (pval≤0.05). Statistical analysis for dry weight determined by % inhibition ≥50 and T test (pval≤0.05), as well as Wilcox test (pval≤0.05).

Row | SMILES | BL Bleaching (% effect) | IG Inhibited growth (% effect)
8 | CC(N)COc1cccc(C(=O)O)c1 (stereo not shown) [Compound 106] | BL^2 (60) % | –
9 | C#CCOC(=O)c1cccc(OCC(C)N)c1 (stereo not shown) [Compound 111] | BL (40) % | –
10 | CCCCOC(=O)c1cccc(OCC(C)N)c1 (stereo not shown) [Compound 112] | – | IG (60), %
11 | C[C@@H](N)COc1cccc(C(=O)O)c1 [Compound 154] | BL (60) % | –

Tested on: not listed separately
Test: in vitro thermal shift (binding of compound to the target)
Details: thermal shift caused by binding of the compound to the (unnamed) target

Row | in vitro Thermal Shift [°C] | SMILES
12 | 13 | CC(N)COc1cccc(C(=O)O)c1 (stereo not shown) [Compound 106]
13 | 4 | C#CCOC(=O)c1cccc(OCC(C)N)c1 (stereo not shown) [Compound 111]
14 | 4 | CCCCOC(=O)c1cccc(OCC(C)N)c1 (stereo not shown) [Compound 112]
15 | 13 | C[C@@H](N)COc1cccc(C(=O)O)c1 [Compound 154]

Tested on: Arabidopsis thaliana
Test: HTPS - Dicot - Pre-emergence
Type: in vivo
Details: N/A: not active
Description: Arabidopsis thaliana seeds were sown in 96 well plates filled with irrigated Sweet sand (10%>clay) that is washed from salts and minerals using tap water. 5-10 seeds were sown in the center of each well. 7-8 days post sowing, at 2 true leaves stage, thinning out was performed to ensure that compound application is done on a single plant per well. The plates were placed in a controlled greenhouse in a random order inside a bath which allows flooding irrigation with tap water supplemented with a fertilizer. Applied compounds were dissolved into a final solution of 50% acetone, 49.9% DDW, 0.1% tween-20. A 96 well plate was used as a stock plate for preparing application solutions for 8 repeats. Each row contained different concentrations per chemical. Maximal concentration for application was 1.5 Kg/Ha and dilution factor is 2.5. Chemical application was performed one day after thinning out in a chemical hood. 5 μL applied on first two true leaves in each well using 12 channel pipettes. Data collection: RGB (red, green, blue) data for green area per well was documented using camera. Data is collected at a few time points during the experiment: one day after thinning and before chemical application, two-, six- or nine-days post application. During the last two documentations, visual phenotyping was performed. Data analysis: Given RGB results and visual phenotype scores, a student t-test conducted to compare between treatment and control performance for continuous data (RGB) and Fisher exact test to analyze the non-continuous data (phenotypic scores). Dose-Response curves are generated for each treatment to infer ED50 and max. inhibition parameters, using treatment's log concentration range as the […] variable and normalized green area. These experiments are conducted similarly except that either Arabidopsis thaliana or Eragrostis teff seeds were sowed (5-10 or 5-7, respectively), plant thinning out was not performed, compound dissolved into a final solution of 50% acetone, 49.9% DDW, compound application was done at 30 μL volume per well directly on sowed soil before plant emergence and data was collected 10 or 7 days after chemical application on dicot or monocot plants, respectively. Plate imaging performed at 11 and 18 DAA. RGB data for green area per well was documented and used to extract % inhibition. Dose-Response curves were built for each treatment to infer ED50, ED75 and ED90 parameters, using treatment's log concentration range as the independent variable and normalized green area as the dependent variable. Treatments were compared to controls performance given RGB results and using student's t-test (p-val≤0.05).

Row | SMILES | HTPS - Dicot - Pre ED50 [g/ha]
16 | CC(N)COc1cccc(C(=O)O)c1 (stereo not shown) [Compound 106] | 33
17 | C#CCOC(=O)c1cccc(OCC(C)N)c1 (stereo not shown) [Compound 111] | 24
18 | CCCCOC(=O)c1cccc(OCC(C)N)c1 (stereo not shown) [Compound 112] | 20

Same assay, conditions: N/A: not active, read-out: HTPS - Dicot - Pre Max effect

Row | SMILES | Emax [%]
19 | CC(N)COc1cccc(C(=O)O)c1 (stereo not shown) [Compound 106] | 100
20 | C#CCOC(=O)c1cccc(OCC(C)N)c1 (stereo not shown) [Compound 111] | 100
21 | CCCCOC(=O)c1cccc(OCC(C)N)c1 (stereo not shown) [Compound 112] | 100

Tested on: SETVI
Test: In-planta LTP pre-emergence, visual phenotype
Type: in vivo, Setaria viridis
Details: Setaria viridis, 432 h, monocot, read-out: DE Disturbed emergence (% effect)
In short: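 Compounds in water sprayed pre-emergence one day after sowing 10-15 seeds per pot in washed sand, at 2 kg/ha or six rates from 1-0.0312 kg/ha. Greenhouse 26/20° C day/night. Visual phenotype scored 0-6 at 18 DAA; effect called at median ≥3.5 with Fisher test p≤0.05.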

Row | SMILES | pest or weed control at 2000 g/ha [%]
22 | CC(N)COc1cccc(C(=O)O)c1 (stereo not shown) [Compound 106] | 100
23 | C#CCOC(=O)c1cccc(OCC(C)N)c1 (stereo not shown) [Compound 111] | 100
24 | CCCCOC(=O)c1cccc(OCC(C)N)c1 (stereo not shown) [Compound 112] | 80
25 | C[C@@H](N)COc1cccc(C(=O)O)c1 [Compound 154] | 100

Same assay, conditions: Setaria viridis, 432 h, monocot, read-out: IG Inhibited growth (% effect)

Row | SMILES | pest or weed control at 2000 g/ha [%]
26 | CC(N)COc1cccc(C(=O)O)c1 (stereo not shown) [Compound 106] | 100
27 | C#CCOC(=O)c1cccc(OCC(C)N)c1 (stereo not shown) [Compound 111] | 100
28 | CCCCOC(=O)c1cccc(OCC(C)N)c1 (stereo not shown) [Compound 112] | 100
